Measurements from patent US10633407B2, “14-membered ketolides and methods of their preparation and use” (President and Fellows of Harvard College, priority 2014, dated 2020).
≈ marks a conversion by molar mass, not a printed value.

Columns and labels:
Test in all cases: CLSI broth dilution MIC determination
Assay type in all cases: cell-based
[1] = system: S. pneumoniae mef A genotype (first strain so labelled); settings: Streptococcus pneumoniae, first strain (MP-626 UNT-038)
Outline: (§1)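 Broth dilution MICs determined by CLSI standard procedures across a strain panel that includes multidrug- and macrolide-resistant strains. Resistance genotypes may be constitutive or inducible.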

[2] = system: S. aureus (MRSA) MP-513 ST-228 cErm (Clinical-cErm); settings: Staphylococcus aureus, read-out: MIC
Outline: as §1

[3] = system: E. coli MP-532 clinical-cErmB; settings: Escherichia coli
Outline: as §1

[4] = system: S. aureus MP-17 ATCCBAA-977 (BAA 977 iErm); settings: Staphylococcus aureus
Outline: as §1

[5] = system: E. coli MP-541 clinical; settings: Escherichia coli, MP541CLINICAL, read-out: MIC
Outline: as §1

[6] = system: E. coli MP-9 ATCC25922:tolC; settings: Escherichia coli, ATCC25922
Outline: as §1

[7] = system: K. pneumoniae MP-548 clinical; settings: Klebsiella pneumoniae, MP548CLINICAL, read-out: MIC
[8] = system: P. aeruginosa MP-8 PAO1:mex (mex-oprM-deletion); settings: Pseudomonas aeruginosa, PAO1
[9] = system: K. pneumoniae MP-546 Clinical-MDR; settings: Klebsiella pneumoniae, read-out: MIC
[10] = system: A. baumannii MP-576 Clinical-MDR; settings: Acinetobacter baumannii, read-out: MIC
[11] = system: A. baumannii MP-577 Clinical-AZT low; settings: Acinetobacter baumannii, read-out: MIC
[12] = system: P. aeruginosa MP-7 PAO1; settings: Pseudomonas aeruginosa, read-out: MIC

| Compound | MIC [1] | MIC [2] | MIC [3] | MIC [4] | MIC [5] | MIC [6] | MIC [7] | MIC [8] | MIC [9] | MIC [10] | MIC [11] | MIC [12] |
| --- | --- | --- | --- | --- | --- | --- | --- | --- | --- | --- | --- | --- |
| CC[C@H]1OC(=O)[C@@](C)(F)C(=O)[C@H](C)[C@@H](O[C@@H]2OC(C)CC(N(C)C)C2O)[C@](C)(OC)C[C@@H](C)C(=O)[C@H](C)[C@H]2N(CC#CCn3cc(-c4cccc(N)c4)nn3)C(=O)O[C@]12C (stereo partly drawn) [FSM-100426] | < 0.0312 µg/mL | – | – | – | – | – | – | – | – | – | – | – |
| CC[C@H]1OC(=O)[C@@](C)(F)C(=O)[C@H](C)[C@@H](OC2OC(C)CC(N(C)C)C2O)[C@](C)(OC)C[C@@H](C)C(=O)[C@H](C)[C@H]2N(CCCCn3cc(-c4cccc(N)c4)nn3)C(=O)O[C@]12C (stereo partly drawn) [Solithro, solithromycin, reference compound] | – | > 32 µg/mL | > 32 µg/mL | 0.125 µg/mL (≈ 0.148 µM) | 16 µg/mL (≈ 18.9 µM) | 4 µg/mL (≈ 4.73 µM) | 32 µg/mL (≈ 37.9 µM) | 8 µg/mL (≈ 9.47 µM) | > 32 µg/mL | > 32 µg/mL | 32 µg/mL (≈ 37.9 µM) | > 32 µg/mL |
